Results from US6229016A, “Method for treating tumors using 2-aryl-naphthyridin-4-ones” (priority 2000, dated 2001).

Experiments:
Assay type in all cases: cell-based
[1] = system: U-251 CNS cancer cell line; test: NCI in vitro screen, CNS cancer U-251; settings: Homo sapiens, read-out: Cytotoxicity log GI50 (converted)
[2] = system: 786-0 renal cancer cell line; test: NCI in vitro screen, renal cancer 786-0; settings: Homo sapiens, read-out: Cytotoxicity log GI50 (converted)
Description: (§1) Compounds 41-51 and 53-68 were submitted to NCI and assayed in the NCI's in vitro disease-oriented antitumor screen, which involves determination of a test compound's effects on the growth of approximately 60 human tumor cell lines. See, M. R. Boyd, et al. In Cancer: Principles and Practice of Oncology Updates; De Vita, V. T., Hellman, S., Rosenberg, S. A., Eds; J. B. Lippincoft: Philadelphia, pp 1-12 (1989); and A. Monks, et al. J. Natl. Cancer Inst. 83:757 (1991). These lines include leukemia, non-small cell lung, colon, central nervous system (CNS), melanoma, ovarian, renal, prostate, and breast cancers.
(§2) Compounds 29'-51' were submitted to NCI and assayed in the NCI's in vitro disease-oriented antitumor screen, using the techniques described in Example 5. This assay involves determinations of a test agent's effect on growth parameters against a panel of approximately 60 human tumor cell lines, derived largely from solid tumors, including non-small cell lung, colon, central nervous system, renal, ovarian, prostate, and breast cancers, plus a few leukemia cell lines. The cytotoxic effects of each compound are obtained as GI50 or […] values, which represent the molar drug concentrations required to cause half growth inhibition and total growth inhibition, respectively. The results are expressed for each cell line as average log GI50 values in Table 4, as log GI50 values in Table 5, and as log TGI values and average log TGI values in Table 6.

[3] = system: SF-295 CNS cancer cell line; test: NCI in vitro screen, CNS cancer SF-295; settings: Homo sapiens, read-out: Cytotoxicity log GI50 (converted)
[4] = system: OVCAR-3 ovarian cancer cell line; test: NCI in vitro screen, ovarian cancer OVCAR-3; settings: Homo sapiens, read-out: Cytotoxicity log GI50 (converted)
[5] = system: MDA-N breast cancer cell line; test: NCI in vitro screen, breast cancer MDA-N; settings: Homo sapiens, read-out: Cytotoxicity log GI50 (converted)
Description: as §1, §2

[6] = system: NCI-H460 non-small cell lung cancer cell line; test: NCI in vitro screen, non-small cell lung cancer NCI-H460; settings: Homo sapiens, read-out: Cytotoxicity log GI50 (converted)
[7] = system: MDA-MB-435 breast cancer cell line; test: NCI in vitro screen, breast cancer MDA-MB-435; settings: Homo sapiens, read-out: Cytotoxicity log GI50 (converted)
[8] = system: HCT-116 colon cancer cell line; test: NCI in vitro screen, colon cancer HCT-116; settings: Homo sapiens; HCT-1.16 (head); HCT-116 (footnote); read-out: Cytotoxicity log GI50 (converted)
[9] = system: NCI's 60 human tumor cell line; test: NCI 60 human tumor cell line in vitro screen (average / whole panel); settings: calculated from all cell lines tested, molar concentrations, read-out: average log GI50 (converted)
[10] = system: SK-MEL-5 melanoma cell line; test: NCI in vitro screen, melanoma SK-MEL-5; settings: Homo sapiens, read-out: Cytotoxicity log GI50 (converted)
Description: as §1, §2

[11] = system: HL-60(TB) leukemia cell line; test: cells; settings: Homo sapiens; HL-60(TB); read-out: Cytotoxicity log GI50 (converted)
[12] = system: PC-3 prostate cancer cell line; test: NCI in vitro screen, prostate cancer PC-3; settings: Homo sapiens, read-out: Cytotoxicity log GI50 (converted)
Description: as §1, §2

| SMILES | GI50 [1] [nM] | GI50 [2] [nM] | GI50 [3] [nM] | GI50 [4] [nM] | GI50 [5] [nM] | GI50 [6] [nM] | GI50 [7] [nM] | GI50 [8] [nM] | GI50 [9] [nM] | GI50 [10] [nM] | GI50 [11] [nM] | GI50 [12] [nM] |
| --- | --- | --- | --- | --- | --- | --- | --- | --- | --- | --- | --- | --- |
| Cc1cnc2[nH]c(-c3cccc(F)c3)cc(=O)c2c1 [29'] | 40.7 | 28.2 | 27.5 | 13.5 | 11.7 | 38.9 | < 10 | 24 | 50.1 | 28.2 | 20.4 | 34.7 |
| Cc1ccc2c(=O)cc(-c3cccc(F)c3)[nH]c2n1 [30'] | 38 | 45.7 | 28.8 | 19.5 | 14.5 | 33.1 | 12.3 | 28.2 | 42.7 | 22.4 | 22.4 | 34.7 |
| Cc1cc(C)c2c(=O)cc(-c3cccc(F)c3)[nH]c2n1 [31'] | 64.6 | 35.5 | 33.1 | 18.2 | 12.9 | 53.7 | < 10 | < 10 | 85.1 | 37.2 | 37.2 | 61.7 |
| O=c1cc(-c2cccc(Cl)c2)[nH]c2ncccc12 [32'] | 145 | 56.2 | 63.1 | 45.7 | 17.4 | 87.1 | < 10 | 28.8 | 229 | 52.5 | 10.5 | 22.4 |
| Cc1ccnc2[nH]c(-c3cccc(Cl)c3)cc(=O)c12 [33'] | 52.5 | 33.1 | 40.7 | 31.6 | 11.7 | 38.9 | < 10 | 15.8 | 158 | 41.7 | 10 | 15500 |
| Cc1cnc2[nH]c(-c3cccc(Cl)c3)cc(=O)c2c1 [34'] | 69.2 | 42.7 | 25.1 | 22.4 | > 100000 | 50.1 | < 10 | 30.2 | 269 | 70.8 | 30.9 | > 100000 |
| Cc1ccc2c(=O)cc(-c3cccc(Cl)c3)[nH]c2n1 [35'] | 64.6 | 41.7 | 22.9 | < 10 | > 100000 | 41.7 | < 10 | 25.7 | 170 | 31.6 | 28.8 | > 100000 |
| Cc1cc(C)c2c(=O)cc(-c3cccc(Cl)c3)[nH]c2n1 [36'] | 295 | 204 | 47.9 | 170 | 19.1 | 224 | 13.2 | 170 | 347 | 117 | 74.1 | 27.5 |
| Cc1cccc(-c2cc(=O)c3cccnc3[nH]2)c1 [37'] | 44.7 | 37.2 | 37.2 | 41.7 | < 10 | 25.7 | < 10 | 22.4 | 95.5 | 25.7 | 19.1 | 42.7 |
| Cc1cccc(-c2cc(=O)c3c(C)ccnc3[nH]2)c1 [38'] | 53.7 | 53.7 | 30.2 | 22.4 | 11 | 36.3 | < 10 | 46.8 | 57.5 | 33.9 | 18.2 | 33.1 |
| Cc1cccc(C2=Nc3ncc(C)cc3C(=O)C2)c1 [Compound 39, 2-(3'-Methylphenyl)-6-methyl-1,8-naphthyridin-4-one] | 170 | 437 | 417 | 251 | < 10 | – | < 10 | 407 | 646 | 288 | 174 | 309 |
| COc1ccccc1-c1cc(=O)c2cccnc2[nH]1 [Compound 39] | 67600 | 36300 | 23400 | 47900 | 20000 | 38900 | 39800 | 27500 | 40700 | 31600 | 38900 | 29500 |
| Cc1cccc(C2=Nc3nc(C)ccc3C(=O)C2)c1 [Compound 40, 2-(3'-Methylphenyl)-7-methyl-1,8-naphthyridin-4-one] | 200 | 427 | 60.3 | 490 | 31.6 | 17.8 | 32.4 | 120 | 97.7 | 126 | 26.9 | 138 |
| COc1ccccc1-c1cc(=O)c2c(C)ccnc2[nH]1 [Compound 40] | 35500 | 60300 | 23400 | 12900 | 8320 | 24000 | 6460 | 7590 | 2820 | 22400 | 20900 | 20900 |
| Cc1cccc(C2=Nc3nc(C)cc(C)c3C(=O)C2)c1 [Compound 41, 2-(3'-Methylphenyl)-5,7-dimethyl-1,8-naphthyridin-4-one] | 53700 | 56200 | 64600 | 30200 | 20900 | 44700 | 20000 | 17800 | – | 34700 | 12900 | 31600 |
| COc1ccccc1-c1cc(=O)c2cc(C)cnc2[nH]1 [Compound 41] | 27500 | 41700 | 30900 | 19500 | 4470 | 32400 | 3020 | 42700 | 31600 | 20400 | 9550 | 26900 |
| O=C1CC(c2cccc3ccccc23)=Nc2ncccc21 [Compound 42, 2-(α-Naphthyl)-1,8-naphthyridin-4-one] | 10.2 | 15.1 | < 10 | < 10 | < 10 | 38.9 | < 10 | < 10 | – | < 10 | < 10 | 17.8 |
| COc1ccccc1-c1cc(=O)c2ccc(C)nc2[nH]1 [Compound 42] | > 100000 | > 100000 | > 100000 | > 100000 | 20000 | 97700 | 21900 | 38000 | 79400 | 51300 | 74100 | > 100000 |
| Cc1ccnc2c1C(=O)CC(c1cccc3ccccc13)=N2 [Compound 43, 2-(α-Naphthyl)-5-methyl-1,8-naphthyridin-4-one] | < 10 | 12 | 10.7 | < 10 | < 10 | < 10 | < 10 | < 10 | 35.5 | < 10 | < 10 | 20 |
| COc1ccccc1-c1cc(=O)c2c(C)cc(C)nc2[nH]1 [Compound 43] | > 100000 | > 100000 | 53700 | 64600 | 33100 | 70800 | 32400 | 74100 | 57500 | 33900 | 30200 | 47900 |
| Cc1cnc2c(c1)C(=O)CC(c1cccc3ccccc13)=N2 [Compound 44, 2-(α-Naphthyl)-6-methyl-1,8-naphthyridin-4-one] | < 10 | < 10 | < 10 | < 10 | < 10 | < 10 | < 10 | < 10 | 19.1 | < 10 | < 10 | < 10 |
